The values below come from a melting point compilation (Tetko et al.; mined from patent text by program, amines drawn as free bases though some values may be those of a salt).

On to `N#Cc1cnc2cc(Cl)c([N+](=O)[O-])cc2c1Cl`, for which the melting point fell in the range of 143 to 153 °C.
Next, `CCCCc1ccc(C(=O)NCCCCn2c(CCOC)nc3c(N)nc4ccccc4c32)nc1`: 54.9 to 55.2 °C; `CNc1nc(=O)n(CCCN2CCN(C(c3ccccc3)c3ccccc3)CC2)c2ccccc12`: 238 to 240 °C.
Next, `O=[N+]([O-])c1c(Br)nn(CCO)c1NCCO`: 132 to 134 °C; `CC(C)Cn1c(CNC(=O)OC(C)(C)C)c(-c2ccc(Cl)cc2)c2cc(O)ccc2c1=O`: 220 to 221 °C.
The value for `S=C1c2cccnc2N(c2ccccc2)C2=NCCN12` was 293 to 296 °C.
Turning to `C#CCN1C(=O)C(C)Oc2cc(F)c(N)cc21` (stereo not given), the melting point lay within 142 to 145 °C.
Next, `O=C(O)c1cc(S(=O)(=O)N2CC=CCC2)ccc1Cl`: 180 to 182 °C.
`CCOC(=O)c1cnc(N(C)C)nc1` came in with a melting point of 65 °C.
Next, `CC(C)c1ccc2c(c1)NC(=S)C2=O`: 169 to 180 °C; `Nc1cc2c(cn1)[nH]c1ccccc12`: 288 to 290 °C; `C=CCOc1ccc2c(C)c(C#N)c(=O)oc2c1C`: 172 °C.
The value for `c1ccc(CCn2cc3c(ncn4nc(-c5ccco5)nc34)n2)cc1` was 268 to 270 °C; that for `O=[N+]([O-])c1cc(CCO)c(NCCO)c([N+](=O)[O-])c1` was 115 °C; that for `CCOC(=O)c1nc2scc(NC(=O)Cc3ccccc3)c2c(=O)[nH]1` was 237 °C.
Next, `Cc1ccc(Sc2c(Cl)c(C(=O)O)c(C(O)=NCCO)c(Cl)c2Sc2ccc(C)cc2)cc1`: 211 to 212 °C.
Turning to `O=C1NCN(c2ccccc2)C12CCN(C1CCC(c3ccc(F)cc3)(c3ccc(F)cc3)CC1)CC2`, the melting point is 249 to 253 °C.
Next, `O=Cc1cccc(C(CC2=NCCN2)c2ccccn2)c1` (stereo not given): 138 to 139 °C; `CC(C)C(=O)NCc1ccc2ccn(C3CCN(CCc4ccc(F)cc4)CC3)c2c1`: 97 to 98 °C.
Next, `CC(CC(=O)NC(C)(C)C#CCl)Oc1cncc(Cl)c1` (stereo not given): 78 to 82 °C.
Next, `CN(C)CCNC(=O)c1ccc(-c2cnc3c(c2)N(C(=O)c2ccccc2)CCN3)cc1`: 145 to 147 °C.
The compound `CC1(C)CC(=O)c2ccc(Cl)cc2O1` had a melting point of 63 to 66 °C.
Next, `Cc1ccc(-c2[nH]c(-c3ccc4ccccc4c3)nc2C(=O)Nc2nccs2)cc1`: more than 250 °C.
The value for `COc1cccc(C(=O)C=Cc2cccc(O)c2)c1` was 74 to 77 °C.
`COc1c(S(=O)(=O)NCc2ccc(Cl)cc2)cc(Br)c2ccc(C)nc12` showed a melting point of 108 to 110 °C.
Compound `CC(=O)Nc1ncnc2c1ncn2[C@@H]1C[C@H](OC(C)=O)[C@@H](O)[C@H]1O` (racemic) showed a melting point of 193 to 195 °C.
The value for `Cn1c(=O)n(Cc2ccc(F)cc2)c(=O)c2cc(C(=O)c3nc(Br)c4ccccn34)ccc21` was 280 °C.
Regarding `COc1cc(I)ccc1-c1ccccc1`, the melting point came to 57 °C.
Take `COc1ccc(-n2nc(OC(C)C)cc2-c2ccc(OCCO)cc2)cn1`: the melting point is 74 to 75 °C.
Next, `CCCCCCCCCCCCCCCCOCC(CN)COC` (stereo not given): 49 to 51 °C.
Next, `CC(C#N)(c1ccc(Cl)c(C(F)(F)F)c1)c1ccc([N+](=O)[O-])cc1Cl` (stereo not given): 162 °C; `CC(C)Cn1c(=O)n(C)c(=O)c2c(Sc3ccc([N+](=O)[O-])cn3)c(Cc3cccc4ccccc34)sc21`: 200 to 201 °C.
Compound `CCCCCCCNC(=O)c1ccc(CCCC)cc1` had a melting point of 37 to 38 °C.
The value for `Nc1c(S(=O)(=O)c2ccc(O)cc2)c2nccnc2n2ccnc12` was more than 300 °C.
Next, `CS(=O)(=O)C(=C1CN(C(c2ccccc2)c2ccccc2)C1)c1cccc(F)c1F`: 208 °C.
